# From article PMC11708044 (mBio, 2024)
# Where two headings read alike, the source gives them in different places. Where a SMILES comes first, the peptide text is derived from it. Bridges are numbered along the chain shown (N, C = ends). Roman numbers before positions name the chains, in order. Where no end group is shown, it is not given here. [ ]: non-standard residue; d: D form. Ahx = NCCCCCC(=O)O
# Legend:
# [1] = tested on: IAV strain PR8; format: cell-based, type A influenza virus (IAV)
# [2] = target: T1, CaMKII-KD (Rattus norvegicus, UniProt P11275); experiment: Kinase assay: phosphorylation of autocamtide-2 by CaMKII-KD; format: biochemical
# T1 construct: made in house; host or cells: Sf21 insect cells, baculovirus (pBacPAK8)
# [3] = tested on: IFNα, IFNβ, Mx1 mRNAs; format: cell-based, canine
# [4] = tested on: IAV strain PR8; format: cell-based, type A influenza virus (IAV); remark: listed apart in the source
# [5] = tested on: NP RNA of IAV strain PR8; format: cell-based, type A influenza virus (IAV)
# [6] = tested on: CCL5 and CXCL10 mRNAs; format: cell-based, canine
# [7] = tested on: TNFα production in RAW264.7 cells; experiment: ELISA of TNFα production in LPS-treated RAW264.7 cells; format: cell-based, mouse; conditions: RAW264.7, peptide 30 min then LPS 10 ng/mL 24 h
# [8] = tested on: IL-6, TNFα, IL-1β mRNAs; experiment: RT-qPCR of proinflammatory cytokine mRNAs in LPS-treated RAW264.7 cells (Fig. S2c); format: cell-based, mouse; conditions: for IL-1β Relative expression AV / IL-6 Relative expression AV / TNFα Relative expression AV: RAW264.7 cells, LPS = 100, mean of n = 3
# Experimental: (§1) a LPS promotes tumor necrosis factor α (TNFα) production in RAW264.7 cells. RAW264.7 cells were treated with the indicated concentration of LPS for 24 h. The amount of TNFα produced in the culture medium was measured by ELISA. Data are presented as a percentage of the control value without peptide (n = 3, mean ± SEM). **P < 0.01; ***P < 0.001 (compared with the control by ANOVA followed by one-sided Dunnett’s test). b The effects of M6 and mM3 on the activation of CaMKII in RAW264.7 cells. RAW264.7 cells were incubated with the indicated concentration of each peptide for 30 min, and then treated with 10 ng/ml LPS for 20 min. The cell lysates were analyzed by western blot using phosphorylated […] specific antibody to detect the activation of CaMKII (upper panel). Data are representative of three independent experiments. […] RAW264.7 cells were incubated with the indicated concentration of each peptide for 30 min, and then treated with10 ng/ml LPS for 3 h. The mRNA level of each proinflammatory cytokine was analyzed by quantitative RT-qPCR. Data are presented as the amount of each mRNA relative to that of LPS treatment only (n = 3, mean ± SEM). **P < 0.01, ***P < 0.001 (compared with the control by ANOVA followed by one-sided Tukey’s test).
# [9] = tested on: CaMKII Thr286 autophosphorylation; experiment: Western blot of LPS-induced CaMKII activation in RAW264.7 cells (Fig. S2b); format: cell-based, mouse
# Experimental: as §1
# [10] = tested on: IAV strain PR8; design: species or system BALB/c mice; conditions: mouse, in vivo
# T1 sequence (P11275 13-271 limits assumed): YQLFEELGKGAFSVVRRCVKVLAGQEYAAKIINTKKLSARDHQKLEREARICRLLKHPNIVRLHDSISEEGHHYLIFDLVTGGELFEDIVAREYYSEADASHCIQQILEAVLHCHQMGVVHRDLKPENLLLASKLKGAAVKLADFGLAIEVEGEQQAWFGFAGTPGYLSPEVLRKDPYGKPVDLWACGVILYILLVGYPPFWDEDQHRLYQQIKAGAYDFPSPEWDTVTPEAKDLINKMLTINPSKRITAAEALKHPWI
compound,measurement,setting,value
"CO/C1=C\C(C)=C\[C@@H](C)[C@@H](O)[C@@H](C)C/C(C)=C/C=C/[C@H](OC)[C@@H]([C@@H](C)[C@@H](O)[C@H](C)[C@@]2(O)C[C@@H](O)[C@H](C)[C@@H](C(C)C)O2)OC1=O [bafilomycin A1, reference compound]",fusion process / virus entry into cells,[1],efficiently inhibited virus entry into cells
CC[C@H](C)[C@H](NC(=O)[C@H](CCCNC(=N)N)NC(=O)[C@H](CCCNC(=N)N)NC(=O)[C@H](C)NC(=O)[C@@H](N)CCSC)C(=O)N[C@@H](CC(C)C)C(=O)N[C@@H](CC(C)C)C(=O)N[C@@H](CC(C)C)C(=O)N[C@@H](CC(C)C)C(=O)N[C@@H](CC(C)C)C(=O)N[C@@H](C)C(=O)N[C@@H](CCCNC(=N)N)C(=O)N[C@@H](CC(C)C)C(=O)N[C@@H](Cc1c[nH]cn1)C(=O)N[C@@H](C)C(=O)N[C@@H](CCCCN)C(=O)N[C@@H](CCCCN)C(=O)N[C@@H](CCCCN)C(=O)NCCCCCC(=O)O [M3] (H-MARRILLLLLARLHAKKK[Ahx]-OH),IC50,[2]; read-out: IC50,19.4 µM
"I: MARRILLLLLARHHAKKK[Ahx]KK-NH2 / II: MARRILLLLLARHHAKKK[Ahx]K / III: MARRILLLLLARHHAKKK[Ahx] / IV: MARRILLLLLARHHAKKK[Ahx] (amide I:20-IV:C, I:21-II:C, II:20-III:C) [T2]",IC50,[2],14.1 µM
CC[C@H](C)[C@H](NC(=O)[C@H](CCCNC(=N)N)NC(=O)[C@H](CCCNC(=N)N)NC(=O)[C@H](C)NC(=O)[C@@H](N)CCSC)C(=O)N[C@@H](CC(C)C)C(=O)N[C@@H](CC(C)C)C(=O)N[C@@H](CC(C)C)C(=O)N[C@@H](CC(C)C)C(=O)N[C@@H](CC(C)C)C(=O)N[C@@H](C)C(=O)N[C@@H](CCCNC(=N)N)C(=O)N[C@@H](Cc1c[nH]cn1)C(=O)N[C@@H](Cc1c[nH]cn1)C(=O)N[C@@H](C)C(=O)N[C@@H](CCCCN)C(=O)N[C@@H](CCCCN)C(=O)N[C@@H](CCCCN)C(=O)NCCCCCC(=O)O [M2] (H-MARRILLLLLARHHAKKK[Ahx]-OH),IC50,[2]; read-out: IC50,34 µM
"I: MARRILLLLLARLHAKKK[Ahx]KK-NH2 / II: MARRILLLLLARLHAKKK[Ahx]K / III: MARRILLLLLARLHAKKK[Ahx] / IV: MARRILLLLLARLHAKKK[Ahx] (amide I:20-IV:C, I:21-II:C, II:20-III:C) [T3]",IC50,[2],8.6 µM
CSCC[C@H](N)C(=O)N[C@@H](C)C(=O)N[C@@H](CCCNC(=N)N)C(=O)N[C@@H](CCCNC(=N)N)C(=O)N[C@@H](CCCNC(=N)N)C(=O)N[C@@H](CC(C)C)C(=O)N[C@@H](CC(C)C)C(=O)N[C@@H](CC(C)C)C(=O)N[C@@H](CC(C)C)C(=O)N[C@@H](CC(C)C)C(=O)N[C@@H](C)C(=O)N[C@@H](CCCNC(=N)N)C(=O)N[C@@H](Cc1c[nH]cn1)C(=O)N[C@@H](Cc1c[nH]cn1)C(=O)N[C@@H](C)C(=O)N[C@@H](CCCCN)C(=O)N[C@@H](CCCCN)C(=O)N[C@@H](CCCCN)C(=O)NCCCCCC(=O)O [M1] (H-MARRRLLLLLARHHAKKK[Ahx]-OH),IC50,[2]; read-out: IC50,29.4 µM
CC[C@H](C)[C@H](NC(=O)[C@H](CCCNC(=N)N)NC(=O)[C@H](C)NC(=O)[C@@H](N)CCSC)C(=O)N[C@H](C(=O)N[C@@H](CC(C)C)C(=O)N[C@@H](CC(C)C)C(=O)N[C@@H](CC(C)C)C(=O)N[C@@H](CC(C)C)C(=O)N[C@@H](CC(C)C)C(=O)N[C@@H](C)C(=O)N[C@@H](CCCNC(=N)N)C(=O)N[C@@H](CC(C)C)C(=O)N[C@@H](Cc1c[nH]cn1)C(=O)N[C@@H](C)C(=O)N[C@@H](CCCCN)C(=O)N[C@@H](CCCCN)C(=O)N[C@@H](CCCCN)C(=O)NCCCCCC(=O)O)[C@@H](C)CC [M5] (H-MARIILLLLLARLHAKKK[Ahx]-OH),IC50,[2]; read-out: IC50,11.1 µM
"O=C1c2c(O)c(=O)ccn2N([C@@H]2c3ccccc3SCc3c2ccc(F)c3F)[C@@H]2COCCN12 [BXA, Baloxavir acid]",expression of IFNα and β mRNAs early in infection,[3],rather increased the expression of both mRNAs
same,expression of IFNα and β mRNAs later in infection,[3],greatly reduced
same,infection-induced cytopathicity,[4],efficiently inhibited
same,infection-induced expression of NP mRNA,[5],efficiently inhibited
same,expression of CXCL10 and CCL5 mRNAs,[6],also increased their expression
"I: MARRILLLLLALLHAKKK[Ahx]KK-NH2 / II: MARRILLLLLALLHAKKK[Ahx]K / III: MARRILLLLLALLHAKKK[Ahx] / IV: MARRILLLLLALLHAKKK[Ahx] (amide I:20-IV:C, I:21-II:C, II:20-III:C) [T6]",IC50,[2],32.2 µM
"myr-Met-Ala-[no. 3 or 6 motif]-Ala [mM3, N-terminal myristoylated-M3 (myr-Met-Ala-[no. 3 motif]-Ala)]",inhibition of TNFα production,[7],inhibited TNFα production similarly to M6
same,"transcription of IL-6, TNFα and IL-1β","[8]; RAW264.7, peptide 30 min then 10 ng/ml LPS 3 h, RT-qPCR",efficiently inhibited
same,IL-1β Relative expression AV,[8]; peptide only (no LPS),0.006044
same,IL-6 Relative expression AV,[8]; peptide only (no LPS),0.006603
same,TNFα Relative expression AV,[8]; peptide only (no LPS),2.34
same,IL-1β Relative expression AV,[8]; peptide+LPS,16.8504
same,IL-6 Relative expression AV,[8]; peptide+LPS,27.8458
same,TNFα Relative expression AV,[8]; peptide+LPS,57.9321
same,"inhibitory effect on IAV cytopathicity, single cycle of infection",[4],greatest inhibitory effect on IAV cytopathicity at concentrations up to 3 µM
same,LPS-induced Thr286 autophosphorylation of CaMKII,"[9]; RAW264.7, peptide 30 min then 10 ng/ml LPS 20 min, western blot",efficiently inhibited
same,Phosphorylation of CaMKII (ratio) AV,"[9]; peptide 10µM, RAW264.7 cells, (-) = 1, mean of n = 3",0.8346
CO/C1=C\C(C)=C\[C@@H](C)[C@@H](O)[C@@H](C)C/C(C)=C/C=C/[C@H](OC)[C@@H]([C@@H](C)[C@@H](O)[C@H](C)[C@@]2(O)C[C@@H](O)[C@H](C)[C@@H](C(C)C)O2)OC1=O [baf],DiO positive vesicles (DiO/R18) Average,[1],0.08663
Cc1nn(CC(F)(F)F)cc1Nc1ncc(Br)c(NCc2ccc(S(N)(=O)=O)cc2)n1 [GSK8612],"IAV-induced cytopathicity of MDCK cells, time of addition",[4],best when GSK8612 was added up to 3 h after infection
CC[C@H](C)[C@H](NC(=O)[C@H](CCCNC(=N)N)NC(=O)[C@H](CCCNC(=N)N)NC(=O)[C@H](C)NC(=O)[C@@H](N)CCSC)C(=O)N[C@@H](CC(C)C)C(=O)N[C@@H](CC(C)C)C(=O)N[C@@H](CC(C)C)C(=O)N[C@@H](CC(C)C)C(=O)N[C@@H](CC(C)C)C(=O)N[C@@H](C)C(=O)N[C@@H](CC(C)C)C(=O)N[C@@H](CC(C)C)C(=O)N[C@@H](Cc1c[nH]cn1)C(=O)N[C@@H](C)C(=O)N[C@@H](CCCCN)C(=O)N[C@@H](CCCCN)C(=O)N[C@@H](CCCCN)C(=O)NCCCCCC(=O)O [M6] (H-MARRILLLLLALLHAKKK[Ahx]-OH),IC50,[2]; read-out: IC50,12.3 µM
"I: MARRRLLLLLARHHAKKK[Ahx]KK-NH2 / II: MARRRLLLLLARHHAKKK[Ahx]K / III: MARRRLLLLLARHHAKKK[Ahx] / IV: MARRRLLLLLARHHAKKK[Ahx] (amide I:20-IV:C, I:21-II:C, II:20-III:C) [T1]",IC50,[2],2.4 µM
COc1ccc(S(=O)(=O)N(CCO)c2ccccc2CN(C)C/C=C/c2ccc(Cl)cc2)cc1 [KN-93],protection from mortality,[10],provided no protection
